Assay results: publication PMC4450297, “Screening Active Compounds from Garcinia Species Native to China Reveals Novel Compounds Targeting the STAT/JAK Signaling Pathway” (BioMed Research International, 2015)
Like-named read-outs stand apart in the source and are kept apart here.

Experiments:
[1] = test system: NCI-H1650 cells; assay: Apoptosis induction assay (Cell Death Detection ELISA); assay type: cell-based, human; conditions: for effect of Z-VAD cotreatment on compound-induced oligonucleosomal fragmentation: NCI-H1650 cells, Z-VAD 10 μmol/L; for NCI-H1650 cells that underwent rapid apoptosis: after 8 h
Experimental: Apoptosis induction assays were performed after 8 or 24 h incubation with compounds using the Cell Death Detection ELISA assay (Roche). Apoptosis induction is represented relative to DMSO-treated controls (set at 1.0). Error bars denote the SEM.

[2] = test system: PUMA, NOXA, and CDIP mRNA in NCI-H1650 cells; assay: Quantitative real-time PCR of proapoptotic genes; assay type: cell-based, human; conditions: 24-hour treatment
Text: The primers for PUMA (Cat. Hs00248075_m1), CDIP1 (Cat. Hs00924663_g1), and NOXA (Cat. Hs00560402_m1) for quantitative PCR were all purchased from Invitrogen. Dissociation curves and no-cDNA controls were generated for each primer pair to detect nonspecific amplification. A standard curve was generated for each primer pair as well as for glyceraldehyde-3-phosphate dehydrogenase (GAPDH; using in this case a predeveloped TaqMan assay), to which gene expression levels were normalized by a comparative threshold cycle method. Finally, a ratio was calculated comparing normalized gene expression values in treated versus untreated controls for each sample.
Total RNA was extracted from the NCI-H1650 cell line using the RNeasy kit (Qiagen). cDNA synthesis was performed using Superscript II RNase H– reverse transcriptase (Life Technologies, Bethesda, MD, USA) to transcribe 2 μg of total RNA primed with 1 μL of 500 μg/mL random hexamers. For quantitative real-time PCR analysis, an ABI TaqMan assay (HS00378697) was used in an ABI 7300 system with the following profile: 95°C for 10 min, followed by 40 cycles of 15 s at 95°C and 60 s at 60°C. PUMA, NOXA, and CDIP1 mRNA levels were normalized by comparison to GAPDH RNA levels in the same samples. Each measurement was performed at least in duplicate.

[3] = test system: MSTO-211-H; assay: Cell panel screen (CellTiter-Glo); assay type: cell-based, human; conditions: Homo sapiens, read-out: Percent Inhibition
Method in brief: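 Single-concentration screen: 20 μM compound, 72 h, versus DMSO-only untreated cells. Viability read by CellTiter-Glo luminescence; % inhibition = (untreated − treated)/(untreated − no-cell background) × 100. Cells grown in recommended media plus 10% FBS at 37° C.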

[4] = test system: HuVec; assay: Cell proliferation assay (CellTiter-Glo), control cell line; assay type: cell-based; conditions: Homo sapiens, 72 h
Experimental: (§1) All cells were obtained from the cell bank of the American Type Culture Collection (ATCC) and cultured in the supplier's recommended media supplemented with 10% FBS. The cell panel screen was measured using the CellTiter-Glo assay (Promega, Madison, WI) following a standard protocol. Briefly, cancer cells were seeded in 96-well plates and cultured overnight at 37°C with or without 5% CO2 in an incubator. Each compound was dissolved with limited DMSO and diluted to a certain concentration with culture medium and then added to the corresponding well of the cell plate. The final concentration of compound was 20 μM. The control cells (without treatment) received the same amount of DMSO and were incubated under the same conditions. After 72 h cultivation, 100 μL of the CellTiter-Glo reagent was added directly to each well for 10-minute incubation. The plate was then read on a FlexStation 3 microplate luminometer (Molecular Devices, USA) to monitor the luminescence signal generated by the luciferase-catalyzed reaction of luciferin and ATP. The percent of growth inhibition was calculated using the following formula: (untreated cells − treated cells)/(untreated cells − background without cells) ∗ 100.
(§2) For proliferation assays, the CellTiter-Glo assay (Promega, Madison, WI) was used to evaluate the proliferation of cancer cells treated with test compounds as described above. Each compound was dissolved in limited DMSO and diluted to various concentrations with culture medium and then added to the corresponding wells. A dose-response curve was plotted, and the IC50 was calculated using XLfit software.

[5] = test system: NCI-H1650; assay: Cell proliferation assay (CellTiter-Glo); assay type: cell-based, human; conditions: NCI-H1650 cells, 20 μM to 0.009 μM in serial 3-fold dilutions
Experimental: as §1, §2

[6] = test system: STAT3, ERK, AKT phosphorylation in NCI-H1650 cells; assay: Western blot analysis in NCI-H1650 cells; assay type: cell-based, human; conditions: 8 h
Experimental: (§3) Floating and adherent cells were harvested and treated with ice-cold RIPA lysis buffer (50 mM Tris-HCl, pH 7.5, 0.5% cholic acid, 2 mM EDTA, 10% glycerol, 150 mM NaCl, 0.1% SDS, and 1% Triton X-100) containing complete Mini Protease Inhibitor Cocktail (Roche Applied Science, Indianapolis, IN). Proteins were separated by sodium dodecyl sulfate polyacrylamide gel electrophoresis and transferred to nitrocellulose membranes. Membranes were blocked with 5% BSA in washing buffer (100 mM NaCl, 10 mM Tris-HCl, pH 7.5, and 0.1% Tween-20) for 1 hr at room temperature and incubated with the respective primary antibodies in 5% BSA in washing buffer overnight at 4°C with shaking. The membranes were probed with the following antibodies: p44/42 (Cat#9107, CST), phospho-p44/42 (Cat#4370, CST), AKT (Cat#9272, CST), phospho-AKT (ser473) (Cat#9271, CST), STAT3 (Cat#9139, CST), and phospho-STAT3 (Tyr705) (Cat#9131, CST). Membranes were then washed and incubated with anti-mouse or anti-rabbit fluorescent secondary antibodies (LICOR, US) diluted in washing buffer for 1 h at room temperature with shaking. Protein bands were detected using an Odyssey Imaging system (LICOR, US).

[7] = test system: phosphorylation of STAT3 upon IL-6 stimulation in HepG2 cells; assay: Western blot, IL-6-stimulated STAT3 activation; assay type: cell-based, human; conditions: pretreated 2 h, IL-6 10 ng/mL 15 min
Experimental: as §3

[8] = MSTO-211-H (Lung), 20 micromolar, 72 hrs

For CC(C)=CCC/C(C)=C/Cc1c(O)c(CC=C(C)C)c2c(c1O)C(=O)C1=C[C@@H]3C[C@H]4C(C)(C)O[C@@](CC=C(C)C)(C3=O)[C@@]14O2 [GB32], the “effect of Z-VAD cotreatment on compound-induced oligonucleosomal fragmentation” value (“effect of Z-VAD cotreatment” below) [1] was “completely suppressed”, the “apoptosis induction (oligonucleosomal fragmentation)” value ([1]; after 24 h) was “significant apoptosis” and the “induction of CIDP mRNA” value [2] was “no effect”. The “induction of NOXA mRNA” value [2] was “no effect”, the “induction of PUMA mRNA” value [2] was “no effect” and the inhibition at 20 µM ([3]; MSTO-211H, 72 h) was 99%. For the same molecule, the IC50 [4] was 1630 ± 60 nM and the IC50 ([5]; Homo sapiens, 72 hr) was 1090 ± 150 nM.
With CC(C)=CCC[C@@]1(C)C=Cc2c(O)c3c(c(CCC(C)(C)O)c2O1)O[C@]12C(=C[C@@H]4C[C@H]1C(C)(C)O[C@@]2(C/C=C(/C)C(=O)O)C4=O)C3=O [GB39, 33-hydroxyepigambogic acid] the “Phosphorylation of ERK and AKT” value [6] was “inhibited”, the “STAT3 expression and its phosphorylation (Tyr705)” value [6] was “inhibited STAT3 expression and its phosphorylation in a dose-dependent manner” and the “effect of Z-VAD cotreatment” value [1] was “completely suppressed”. For the same molecule, the “NCI-H1650 cells that underwent rapid apoptosis” value [1] was > 90%, the “phosphorylation of STAT3 upon IL-6 stimulation” value [7] was “efficiently suppressed” and the “induction of CIDP mRNA” value [2] was 3 fold. The “induction of NOXA mRNA” value [2] was “greater than 5 fold”, the “induction of PUMA mRNA” value [2] was 3 fold and the inhibition at 20 µM [3, 8] was 100%. The IC50 [4] was 890 ± 90 nM, the IC50 ([5]; Homo sapiens, NCI-H1650, 72 h) was < 1000 nM and the IC50 ([5]; 72 hr) was 950 ± 30 nM.
CC(C)=CCC/C(C)=C/Cc1c(O)c(CC=C(C)C)c2c(c1O)C(=O)C1=C[C@@H]3C[C@H]4C(C)(C)O[C@@](C/C=C(\C)C=O)(C3=O)[C@@]14O2 [GB49] was tested, and the “induction of CIDP mRNA” value [2] was “no effect”, the “induction of NOXA mRNA” value [2] was “no effect” and the “induction of PUMA mRNA” value [2] was “no effect”. The inhibition at 20 µM [3, 8] was 99%, the IC50 [4] was 1470 ± 70 nM and the IC50 ([5]; Homo sapiens, NCI-H1650, 72 h) was 970 ± 40 nM.
For CC(C)=CCC/C(C)=C/Cc1c(O)c(CC=C(C)C)c2c(c1O)C(=O)C1=C[C@@H]3C[C@H]4C(C)(C)O[C@@](C/C=C(\C)C(=O)O)(C3=O)[C@@]14O2 [GB63], the “induction of CIDP mRNA” value [2] was “no effect”, the “induction of NOXA mRNA” value [2] was “no effect” and the “induction of PUMA mRNA” value [2] was “no effect”. For the same molecule, the inhibition at 20 µM [3, 8] was 99%, the IC50 [4] was 1900 ± 30 nM and the IC50 ([5]; Homo sapiens, NCI-H1650, 72 h) was 1430 ± 90 nM.
For CC(C)=CCC[C@@]1(C)C=Cc2c(O)c3c(c(C/C=C(\C)CO)c2O1)O[C@]12C(=C[C@@H]4C[C@H]1C(C)(C)O[C@@]2(C/C=C(/C)C(=O)O)C4=O)C3=O [GB40, 35-hydroxyepigambogic acid], the “Phosphorylation of ERK and AKT” value [6] was “inhibited”, the “STAT3 expression and its phosphorylation (Tyr705)” value [6] was “inhibited STAT3 expression and its phosphorylation in a dose-dependent manner” and the “effect of Z-VAD cotreatment” value [1] was “completely suppressed”. The “NCI-H1650 cells that underwent rapid apoptosis” value [1] was > 90%, the “phosphorylation of STAT3 upon IL-6 stimulation” value [7] was “efficiently suppressed” and the “induction of CIDP mRNA” value [2] was 2 fold. For the same molecule, the “induction of NOXA mRNA” value [2] was “greater than 5 fold”, the “induction of PUMA mRNA” value [2] was 2 fold and the inhibition at 20 µM [3, 8] was 98%. For the same molecule, the IC50 [4] was 680 ± 10 nM, the IC50 ([5]; Homo sapiens, NCI-H1650, 72 h) was < 1000 nM and the IC50 ([5]; 72 hr) was 620 ± 30 nM.
